# Measured values published in patent US20240254138A1, “TRICYCLIC PYRIMIDINES AS CYCLIN-DEPENDENT KINASE 7 (CDK7) INHIBITORS” (JANSSEN PHARMACEUTICA NV, priority 2021, published 2024).
# Like-named read-outs stand apart in the source and are kept apart here.
# Experiments:
# [1] = test system: RNA Polymerase II Serine 5 phosphorylation (Rpb1 CTD, downstream substrate of CDK7) in A549 cells; test: Imaging-based cellular RNA PolII Ser5 phosphorylation assay in A549 cells; format: cell-based, human; details: wild-type CDK7, RNA PolII Ser5 phosphorylation, averaged over all measurements; for IC50: Homo sapiens, A549, A549 cells, read-out: CDK7_A549 Wild-type CDK7 (pIC50) (converted); for CDK7_A549 Wild-type CDK7 (pIC50): A549 cells
# Method in brief: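 A549 cells, seeded 1000/well in DMEM with 1% FBS and cultured 20 h, were treated with compound for 3 h at 37 °C. Ser5-phospho-Rpb1 CTD detected by immunofluorescence imaging after fixation and methanol permeabilization; IC50 from curve fit normalized to DMSO and 10 μM reference-compound controls.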
# [2] = test system: RNA Polymerase II Serine 5 phosphorylation in A549 cells overexpressing CDK7-mutant (C312S); test: Imaging-based cellular RNA PolII Ser5 phosphorylation assay in A549 cells overexpressing CDK7-mutant (C312S); format: cell-based, human; details: RNA PolII Ser5 phosphorylation, averaged over all measurements; for IC50: Homo sapiens, A549, A549 cells overexpressing CDK7-mutant (C312S), read-out: CDK7_A549 mutant hCDK7(pIC50) (converted); for CDK7_A549 mutant hCDK7(pIC50): A549 cells overexpressing CDK7-mutant (C312S)
# Method in brief: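 A549 cells overexpressing CDK7 C312S (with endogenous wild-type CDK7) were treated with compound for 3 h at 37 °C in 1% FBS medium. Phospho-Rpb1 CTD Ser5 was immunostained after fixation and imaged. IC50 came from curve fit of % control, normalised to DMSO and 10 μM reference-compound controls.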
# [3] = target: CDK7/cyclinH/MAT1 trimeric complex (Homo sapiens, UniProt P50613); test: In vitro CDK7 assay, potency of irreversible covalent inhibitors (kinact/KI), coupled PK/LDH ADP readout at 340 nm
# [4] = CDK7 (20 nM enz.) (KI, μM), 20 nM enzyme
# [5] = read-out: CDK7 (20 nM enz.) (kinact, s^−1), 20 nM enzyme
# [6] = read-out: CDK7 (20 nM enz.) (kinact/KI, M^−1*s^−1), 20 nM enzyme
# [7] = read-out: CDK7 (kinact/KI, M^−1*s^−1), potency of irreversible covalent inhibitors, 1 mM ATP, room temperature, averaged values over all measurements
# CDK7/cyclinH/MAT1 trimeric complex, sequence (P50613 whole entry): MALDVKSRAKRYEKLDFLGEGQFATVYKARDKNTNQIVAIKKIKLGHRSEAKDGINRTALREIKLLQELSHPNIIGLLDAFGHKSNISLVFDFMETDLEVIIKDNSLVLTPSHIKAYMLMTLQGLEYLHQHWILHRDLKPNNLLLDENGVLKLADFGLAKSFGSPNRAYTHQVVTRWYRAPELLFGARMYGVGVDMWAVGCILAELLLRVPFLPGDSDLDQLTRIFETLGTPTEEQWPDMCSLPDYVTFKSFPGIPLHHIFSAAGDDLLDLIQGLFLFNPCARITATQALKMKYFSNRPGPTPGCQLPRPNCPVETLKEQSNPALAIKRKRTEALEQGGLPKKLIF
# CDK7/cyclinH/MAT1 trimeric complex, sequence (P51946 whole entry partner): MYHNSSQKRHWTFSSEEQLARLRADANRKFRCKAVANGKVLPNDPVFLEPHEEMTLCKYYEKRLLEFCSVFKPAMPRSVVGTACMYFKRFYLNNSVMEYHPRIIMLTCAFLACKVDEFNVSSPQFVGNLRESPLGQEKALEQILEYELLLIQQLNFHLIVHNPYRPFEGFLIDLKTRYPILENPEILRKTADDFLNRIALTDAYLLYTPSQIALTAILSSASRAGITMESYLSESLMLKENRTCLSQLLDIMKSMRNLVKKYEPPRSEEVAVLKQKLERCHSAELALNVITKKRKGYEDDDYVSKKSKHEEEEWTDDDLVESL
# CDK7/cyclinH/MAT1 trimeric complex, sequence (P51948 whole entry partner): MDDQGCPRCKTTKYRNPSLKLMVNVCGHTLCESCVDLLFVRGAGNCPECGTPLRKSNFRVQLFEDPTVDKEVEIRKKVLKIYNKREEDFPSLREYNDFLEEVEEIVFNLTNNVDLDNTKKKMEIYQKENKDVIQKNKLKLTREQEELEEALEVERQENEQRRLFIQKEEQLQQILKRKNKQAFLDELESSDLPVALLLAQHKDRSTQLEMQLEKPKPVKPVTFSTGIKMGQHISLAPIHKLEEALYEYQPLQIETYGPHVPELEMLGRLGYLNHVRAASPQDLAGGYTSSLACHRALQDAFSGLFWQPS
SMILES,IC50 [1] [nM],IC50 [2] [nM],"Ki [3, 4] [µM]","kinact [3, 5] [s⁻¹]","kinact/KI [3, 6] [M⁻¹ s⁻¹]",other results
"C=CC(=O)N1CC[C@H](N2CC(c3cc(C)c4c(c3)Nc3nccc(C5CCOCC5)c3CO4)C2)C1 (single isomer, unassigned) [Compound 193]",69.2,> 10000,0.063,3.66e-05,581,
CC#CC(=O)N1CCC(n2cc(-c3cc4c(c(C)n3)OCc3c(N5CCOCC5)ccnc3N4)cn2)CC1 [Compound 399],447,> 10000,0.0839,6.61e-06,78.8,
C=CC(=O)N1CCC(N2CC(c3cc4c(c(C(F)(F)F)c3)OCc3c(-c5cnn(C)c5)ccnc3N4)C2)CC1 [Compound 102],40.7,3550,0.0268,4.38e-05,1630,
"CC#CC(=O)N1CC(N2CC(c3cc4c(c(C)n3)O[C@@H](C)c3c(C5CCOCC5)ccnc3N4)C2)C1 (single isomer, unassigned) [Compound 487]",> 10000,> 10000,,,1.54,
"CC#CC(=O)N1CC(N2CC(c3cc4c(c(C)n3)O[C@H](C)c3c(C5CCOCC5)ccnc3N4)C2)C1 (single isomer, unassigned) [Compound 488]",~302,> 10000,0.328,4.23e-05,129,
"C=CC(=O)N1CC[C@@H](N2CC(c3cc4c(c(C)n3)O[C@H](C)c3c(-c5cnn(C)c5)ccnc3N4)C2)C1 (single isomer, unassigned) [Compound 482]",89.1,> 10000,,,339,
C=CC(=O)N1CCC(N2CC(c3cc(C)c4c(c3)Nc3nccc(-c5cnn(C)c5)c3CO4)C2)CC1 [Compound 100],51.3,3310,,,,"CDK7 (20 nM enz.) (kinact, s^−1) ([3]; 20 nM enzyme): 5.051e-05 s⁻¹; CDK7 (20 nM enz.) (kinact/KI, M^−1*s^−1) ([3]; 20 nM enzyme): 1179.87 M⁻¹ s⁻¹"
"CC#CC(=O)N1CC(N2CCC(c3cc(C#N)c4c(c3)Nc3nccc(N5CCOCC5)c3C(C)O4)CC2)C1 (single isomer, unassigned) [Compound 443]",20.4,4270,,,,"kinact/KI ([3]; read-out: CDK7 (20 nM enz.) (kobs/[I], M^−1*s^−1), 20 nM enzyme): 1430 M⁻¹ s⁻¹"
C=C(F)C(=O)N1CC(N2CCC(c3ccc4c(c3)Nc3nccc(C5CCOCC5)c3CO4)CC2)C1 [Compound 188],1070,> 10000,0.507,3.02e-05,59.6,
"C=CC(=O)N1CCC(N2CC(c3cc(F)c4c(c3)Nc3nccc(C5CCOCC5)c3[C@@H](C)O4)C2)CC1 (single isomer, unassigned) [Compound 153]",18.6,5750,0.0288,3.67e-05,1280,
C=CC(=O)N1CC(N2CCC(c3cc4c(c(C#N)n3)OCc3c(-c5cnn(C)c5)ccnc3N4)CC2)C1 [Compound 298],263,> 10000,0.0311,8.92e-05,2870,
"CC#CC(=O)N1CC[C@@H](N2CC(c3cc(C)c4c(c3)Nc3nccc(N5CCOCC5)c3[C@@H](C)O4)C2)C1 (single isomer, unassigned) [Compound 289]",123,> 10000,0.0628,2.54e-05,404,
C=CC(=O)N1CC(N2CCC(c3ccc4c(c3)Nc3nccc(N5CCS(=O)(=O)CC5)c3CO4)CC2)C1 [Compound 9],447,> 10000,,,,"kinact/KI [3, 7]: 486 M⁻¹ s⁻¹"
C=CC(=O)N1CC(N2CCC(c3ccc4c(c3)Nc3nccc(C5CCOCC5)c3CO4)CC2)C1 [Compound 123],,,0.0244,3.4e-05,1390,CDK7_A549 Wild-type CDK7 (pIC50) [1]: 7.15; CDK7_A549 mutant hCDK7(pIC50) [2]: <5
C=CC(=O)N1CC(N2CC[C@H](c3ccc4c(c3)Nc3nccc(N5CCOCC5)c3CO4)[C@@H](F)C2)C1 (mixture of isomers) [Compound 226],,,0.67,6.76e-05,,"CDK7_A549 Wild-type CDK7 (pIC50) [1]: 6.55; CDK7_A549 mutant hCDK7(pIC50) [2]: <5; CDK7 (20 nM enz.) (kinact/KI, M^−1*s^−1) ([3]; 20 nM enzyme): 100.867 M⁻¹ s⁻¹"
C=CC(=O)N1CC(c2ccc(-c3ccc4c(c3)Nc3nccc(N5CCOCC5)c3CO4)cn2)C1 [Compound 43],339,> 10000,,,,"Ki ([3]; CDK7 (KI(μM)), […], 1 mM ATP, room temperature, averaged values over all measurements): 0.0497 µM; kinact ([3]; read-out: CDK7 (kinact, s^−1), kinact = maximal rate of inactivation, 1 mM ATP, room temperature, averaged values over all measurements): 5.46e-05 s⁻¹; kinact/KI [3, 7]: 1100 M⁻¹ s⁻¹"

SMILES,IC50 [1] [nM],IC50 [2] [nM],"Ki [3, 4] [µM]","kinact [3, 5] [s⁻¹]","kinact/KI [3, 6] [M⁻¹ s⁻¹]",other results
Cc1nc(C2CCN(C3CN(C(=O)/C=C/C(=O)OC(C)C)C3)CC2)cc2c1OCc1c(-c3cnn(C)c3)ccnc1N2 [Compound 436],575,> 10000,0.311,4.3e-05,138,
"C=CC(=O)N1CCC(N2CC(c3cc4c(c(C#N)n3)O[C@H](C)c3c(N5CCOCC5)ccnc3N4)C2)CC1 (single isomer, unassigned) [Compound 489]",58.9,3470,,,305,
"C=CC(=O)N1CC[C@@H](N2CC(c3cc4c(c(C(F)(F)F)n3)OCc3c(-c5cnn(C)c5)ccnc3N4)C2)C1 (single isomer, unassigned) [Compound 495]",145,> 10000,0.0763,5.75e-05,754,
"C=CC(=O)N1CC[C@@H](N2CC(c3cc4c(c(C)n3)O[C@@H](C)c3c(N5CCOCC5)ccnc3N4)C2)C1 (single isomer, unassigned) [Compound 456]",2880,> 10000,24.6,0.000114,4.65,
C=CC(=O)N1CC(N2[C@@H]3CC[C@H]2C[C@@H](c2ccc4c(c2)Nc2nccc(N5CCOCC5)c2CO4)C3)C1 [Compound 68],,,,,,"CDK7_A549 Wild-type CDK7 (pIC50) [1]: 7.4; CDK7_A549 mutant hCDK7(pIC50) [2]: 5.14; CDK7 (20 nM enz.) (kobs/[I], M^−1*s^−1) ([3]; 20 nM enzyme): 1369 M⁻¹ s⁻¹"
CC#CC(=O)N1CC(N2CC(c3cc4c(c(CCC)n3)OCc3c(N5CCOCC5)ccnc3N4)C2)C1 [Compound 368],191,> 10000,0.103,4.43e-05,429,
"CC#CC(=O)N1CCC(N2CC(c3cc4c(c(C5CC5)n3)O[C@@H](C)c3c(N5CCOCC5)ccnc3N4)C2)CC1 (single isomer, unassigned) [Compound 374]",457,> 10000,1.36,3.18e-05,23.3,
C=CC(=O)N1CC(N2CCC(c3cc(F)c4c(c3)Nc3nccc(N5CCOCC5)c3CO4)CC2)C1 [Compound 62],77.6,> 10000,0.0266,6.42e-05,2410,
C=CC(=O)N1CCC(N2CC(c3cc(F)c4c(c3)Nc3nccc(N5CCOCC5)c3CO4)C2)CC1 [Compound 136],72.4,7240,0.0603,4.42e-05,734,
"C=CC(=O)N1CC(N2CC[C@@H](c3cc4c(c(C)n3)O[C@@H](C)c3c(N5CCOCC5)ccnc3N4)C2)C1 (single isomer, unassigned) [Compound 392]",129,~10000,0.0655,5.4e-05,823,
"CC#CC(=O)N1CC[C@@H](N2CC(c3cc4c(c(C5CC5)n3)O[C@@H](C)c3c(N5CCOCC5)ccnc3N4)C2)C1 (single isomer, unassigned) [Compound 472]",204,> 10000,,,79.5,
C=CC(=O)N1CC(N2CCC(c3cc4c(cc3F)OCc3c(N5CCOCC5)ccnc3N4)CC2)C1 [Compound 28],257,> 10000,,,,"kinact/KI [3, 7]: 477 M⁻¹ s⁻¹"
C=CC(=O)N1CCC(N2CCC(c3cc(C)c4c(c3)Nc3nccc(-c5cnn(C)c5)c3CO4)CC2)CC1 [Compound 105],16.2,2570,0.0256,5.8e-05,2260,
C=CC(=O)N1CCC(c2nc(C)c(-c3cc(C)c4c(c3)Nc3nccc(C5CCOCC5)c3CO4)c(C)n2)CC1 [Compound 116],398,> 10000,0.293,5.05e-05,173,
C=CC(=O)N1CCC(C2CN(c3cc4c(c(C)n3)OCc3c(N5CCOCC5)ccnc3N4)C2)CC1 [Compound 439],1100,> 10000,0.401,1.01e-05,25.2,
"CC#CC(=O)N1CC(N2CC[C@H](c3cc4c(c(C)n3)OCc3c(N5CCOCC5)ccnc3N4)C2)C1 (single isomer, unassigned) [Compound 387]",977,> 10000,0.451,2.21e-05,49.1,
